Tests used:
Assay in all cases: relative viability vs DMSO control (72 h) (fraction); higher = more viable cells
[1] = system: HT1080
Procedure, shortened: (§1)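 After seeding at densities set for 80–90% confluence in 384-well plates, sarcoma cell lines waited 24 h before 2.5 µl of serially diluted compound was added. Source plates held 10 mM down to 0.0002 mM. Plates were incubated 72 h at 37 °C with 5% CO2, with 0.1% DMSO vehicle and a 5 µM positive control, and relative viability was taken from ATPLite as percent growth averaged over up to triplicate wells, with 1 set as full and 0 as none.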

[2] = system: SW872
Procedure, shortened: as §1

[3] = system: SK-LMS-1
Procedure, shortened: as §1

[4] = system: KHOS-NP
Procedure, shortened: as §1

[5] = system: HS729
Procedure, shortened: as §1

[6] = system: SK-ES-1
Procedure, shortened: as §1

[7] = system: A204
Procedure, shortened: as §1

[8] = system: VA-ES-BJ
Procedure, shortened: as §1

[9] = system: SW684
Procedure, shortened: as §1

[10] = system: G401
Procedure, shortened: as §1

[11] = system: SW982
Procedure, shortened: as §1

[12] = system: RD-ES
Procedure, shortened: as §1

C[C@H]1Oc2cc(cnc2N)-c2c(nn(C)c2C#N)CN(C)C(=O)c2ccc(F)cc21 [Lorlatinib]
Settings	relative viability
[1], 0.00017 µM	1.09
[1], 0.00051 µM	1.08
[1], 0.00152 µM	1.09
[1], 0.00457 µM	1.1
[1], 0.01372 µM	1.08
[1], 0.04115 µM	1.03
[1], 0.1235 µM	1.07
[1], 0.3704 µM	1.09
[1], 1.111 µM	1.03
[1], 3.333 µM	1.09
[1], 10 µM	1.05
[2], 0.00017 µM	1.08
[2], 0.00051 µM	1.05
[2], 0.00152 µM	1.04
[2], 0.00457 µM	1.04
[2], 0.01372 µM	1
[2], 0.04115 µM	0.956
[2], 0.1235 µM	0.921
[2], 0.3704 µM	0.838
[2], 1.111 µM	0.798
[2], 3.333 µM	0.718
[2], 10 µM	0.658
[3], 0.00017 µM	1.12
[3], 0.00051 µM	1.095
[3], 0.00152 µM	1.081
[3], 0.00457 µM	1.09
[3], 0.01372 µM	1.1
[3], 0.04115 µM	1.09
[3], 0.1235 µM	1.07
[3], 0.3704 µM	1.02
[3], 1.111 µM	1.02
[3], 3.333 µM	1
[3], 10 µM	0.933
[4], 0.00017 µM	1.09
[4], 0.00051 µM	1.091
[4], 0.00152 µM	1.09
[4], 0.00457 µM	1.07
[4], 0.01372 µM	1.07
[4], 0.04115 µM	1.06
[4], 0.1235 µM	1.02
[4], 0.3704 µM	1.07
[4], 1.111 µM	0.999
[4], 3.333 µM	1.02
[4], 10 µM	0.954
[5], 0.00017 µM	1.06
[5], 0.00051 µM	0.956
[5], 0.00152 µM	0.897
[5], 0.00457 µM	0.958
[5], 0.01372 µM	0.878
[5], 0.04115 µM	0.886
[5], 0.1235 µM	0.829
[5], 0.3704 µM	0.899
[5], 1.111 µM	0.803
[5], 3.333 µM	0.781
[5], 10 µM	0.662
[6], 0.00017 µM	1.02
[6], 0.00051 µM	1.03
[6], 0.00152 µM	1.06
[6], 0.00457 µM	1.05
[6], 0.01372 µM	1.01
[6], 0.04115 µM	1.01
[6], 0.1235 µM	1.023
[6], 0.3704 µM	1.03
[6], 1.111 µM	1
[6], 3.333 µM	0.89
[6], 10 µM	0.571
[7], 0.00017 µM	1.08
[7], 0.00051 µM	1.11
[7], 0.00152 µM	1.1
[7], 0.00457 µM	1.13
[7], 0.01372 µM	1.1
[7], 0.04115 µM	1.07
[7], 0.1235 µM	1.05
[7], 0.3704 µM	1.05
[7], 1.111 µM	1.01
[7], 3.333 µM	0.981
[7], 10 µM	0.988
[8], 0.00017 µM	1.056
[8], 0.00051 µM	1.08
[8], 0.00152 µM	1.05
[8], 0.00457 µM	1.03
[8], 0.01372 µM	1.02
[8], 0.04115 µM	0.989
[8], 0.1235 µM	0.989
[8], 0.3704 µM	0.956
[8], 1.111 µM	0.966
[8], 3.333 µM	0.955
[8], 10 µM	0.87
[9], 0.00017 µM	1.13
[9], 0.00051 µM	1.2
[9], 0.00152 µM	1.17
[9], 0.00457 µM	1.17
[9], 0.01372 µM	1.17
[9], 0.04115 µM	1.185
[9], 0.1235 µM	1.15
[9], 0.3704 µM	1.09
[9], 1.111 µM	1.14
[9], 3.333 µM	1.12
[9], 10 µM	1.12
[10], 0.00017 µM	1.05
[10], 0.00051 µM	1.05
[10], 0.00152 µM	1.04
[10], 0.00457 µM	1.03
[10], 0.01372 µM	1.06
[10], 0.04115 µM	1.02
[10], 0.1235 µM	0.968
[10], 0.3704 µM	0.984
[10], 1.111 µM	1
[10], 3.333 µM	1.01
[10], 10 µM	0.916
[11], 0.00017 µM	1.012
[11], 0.00051 µM	1.04
[11], 0.00152 µM	1.02
[11], 0.00457 µM	1.04
[11], 0.01372 µM	1.03
[11], 0.04115 µM	1.03
[11], 0.1235 µM	0.895
[11], 0.3704 µM	0.826
[11], 1.111 µM	0.762
[11], 3.333 µM	0.768
[11], 10 µM	0.64
[12], 0.00017 µM	0.973
[12], 0.00051 µM	0.96
[12], 0.00152 µM	0.972
[12], 0.00457 µM	0.978
[12], 0.01372 µM	0.969
[12], 0.04115 µM	0.9601
[12], 0.1235 µM	0.965
[12], 0.3704 µM	0.891
[12], 1.111 µM	0.861
[12], 3.333 µM	0.74
[12], 10 µM	0.499
